Results on 3 molecules are retold here after patent US20090286829A1, “QUINOLYNYLMETHYLIMIDIZOLES AS THERAPEUTIC AGENTS” (ALLERGAN, INC., priority 2008, published 2009).

Type in all cases: cell-based
For one assay, the target named is T1, Alpha 2C (Homo sapiens, UniProt P18825).
T1 construct: expressed in transfected cells; host or cells: NIH-3T3
T1 sequence (P18825 1-462): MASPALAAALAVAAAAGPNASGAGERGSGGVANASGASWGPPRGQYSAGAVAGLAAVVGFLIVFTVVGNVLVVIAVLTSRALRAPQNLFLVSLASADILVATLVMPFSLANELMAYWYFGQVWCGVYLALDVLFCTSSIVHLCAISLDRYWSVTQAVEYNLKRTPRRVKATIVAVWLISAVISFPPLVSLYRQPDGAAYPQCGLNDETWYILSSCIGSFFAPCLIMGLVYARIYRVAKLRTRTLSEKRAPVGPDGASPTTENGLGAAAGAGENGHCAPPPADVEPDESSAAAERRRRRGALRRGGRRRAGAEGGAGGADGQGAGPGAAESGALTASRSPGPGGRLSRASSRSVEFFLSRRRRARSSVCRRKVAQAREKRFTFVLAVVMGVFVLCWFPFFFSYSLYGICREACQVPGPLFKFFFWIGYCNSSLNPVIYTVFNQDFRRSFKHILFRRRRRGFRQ
The assay is described as follows: RSAT assay, alpha 2C receptor. How it is done: (§1) The RSAT assay measures a receptor-mediated loss of contact inhibition that results in selective proliferation of receptor-containing cells in a mixed population of confluent cells. The increase in cell number is assessed with an appropriate transfected marker gene such as -galactosidase, the activity of which can be easily measured in a 96-well format. Receptors that activate the G protein, Gq, elicit this response. Alpha2 receptors, which normally couple to Gi, activate the RSAT response when coexpressed with a hybrid Gq protein that has a Gi receptor recognition domain, called Gq/i5.
(§2) NIH-3T3 cells are plated at a density of 2×10^6 cells in 15 cm dishes and maintained in Dulbecco's modified Eagle's medium supplemented with 10% calf serum. […] After washing with phosphate-buffered saline, β-galactosidase enzyme activity is determined by adding 200 μl of the chromogenic substrate (consisting of 3.5 mM o-nitrophenyl-β-D-galactopyranoside and 0.5% nonidet P-40 in phosphate buffered saline), incubating overnight at 30° C. and measuring optical density at 420 nm. The absorbance is a measure of enzyme activity, which depends on cell number and reflects a receptor-mediated cell proliferation. The efficacy or intrinsic activity is calculated as a ratio of the maximal effect of the drug to the maximal effect of a standard full agonist for each receptor subtype. […]

The next assay addresses T2, Alpha 2B (Homo sapiens, UniProt P18089).
T2 construct: expressed in transfected cells; host or cells: NIH-3T3
T2 sequence (P18089 1-450): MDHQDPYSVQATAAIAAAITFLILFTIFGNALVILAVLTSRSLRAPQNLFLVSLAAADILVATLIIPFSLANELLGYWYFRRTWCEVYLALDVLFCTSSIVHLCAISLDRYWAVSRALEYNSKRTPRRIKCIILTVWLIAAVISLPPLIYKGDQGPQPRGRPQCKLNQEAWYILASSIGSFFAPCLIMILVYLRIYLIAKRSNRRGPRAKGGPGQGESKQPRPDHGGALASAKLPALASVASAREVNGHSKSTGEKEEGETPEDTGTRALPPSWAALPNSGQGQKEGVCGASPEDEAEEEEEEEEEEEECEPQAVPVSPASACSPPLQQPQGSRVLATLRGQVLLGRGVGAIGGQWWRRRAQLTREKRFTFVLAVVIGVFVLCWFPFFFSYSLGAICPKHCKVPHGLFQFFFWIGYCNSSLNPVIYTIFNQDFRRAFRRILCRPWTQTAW
The assay is described as follows: RSAT assay, alpha 2B receptor. As to conditions: for Alpha 2B (IA) intrinsic activity: RSAT, ratio of maximal effect to that of standard agonist brimonidine. How it is done:
as §1
NIH-3T3 cells are plated at a density of 2×10^6 cells in 15 cm dishes and maintained in Dulbecco's modified Eagle's medium supplemented with 10% calf serum. One day later, cells are cotransfected by calcium phosphate precipitation with mammalian expression plasmids encoding p-SV-1-galactosidase (5-10 μg), receptor (1-2 μg) and G protein (1-2 μg). 40 μg salmon sperm DNA may also be included in the transfection mixture. Fresh media is added on the following day and 1-2 days later, cells are harvested and frozen in 50 assay aliquots. Cells are thawed and 100 μl added to 100 μl aliquots of various concentrations of drugs in triplicate in 96-well dishes. Incubations continue 72-96 hr at 37° C. After washing with phosphate-buffered saline, β-galactosidase enzyme activity is determined by adding 200 μl of the chromogenic substrate (consisting of 3.5 mM o-nitrophenyl-β-D-galactopyranoside and 0.5% nonidet P-40 in phosphate buffered saline), incubating overnight at 30° C. and measuring optical density at 420 nm. The absorbance is a measure of enzyme activity, which depends on cell number and reflects a receptor-mediated cell proliferation. The efficacy or intrinsic activity is calculated as a ratio of the maximal effect of the drug to the maximal effect of a standard full agonist for each receptor subtype. Brimonidine, also called UK14304, the chemical structure of which is shown below, is used as the standard agonist for the alpha2A, alpha2B and alpha2C receptors. The EC50 is the concentration at which the drug effect is half of its maximal effect.
EC50 values are nanomolar. NA stands for “not active” at concentrations less than 10 micromolar. IA stands for “intrinsic activity.”

Another assay has as its target T3, Alpha 1A (Homo sapiens, UniProt P35348).
T3 construct: expressed in transfected cells; host or cells: NIH-3T3
T3 sequence (P35348 1-466): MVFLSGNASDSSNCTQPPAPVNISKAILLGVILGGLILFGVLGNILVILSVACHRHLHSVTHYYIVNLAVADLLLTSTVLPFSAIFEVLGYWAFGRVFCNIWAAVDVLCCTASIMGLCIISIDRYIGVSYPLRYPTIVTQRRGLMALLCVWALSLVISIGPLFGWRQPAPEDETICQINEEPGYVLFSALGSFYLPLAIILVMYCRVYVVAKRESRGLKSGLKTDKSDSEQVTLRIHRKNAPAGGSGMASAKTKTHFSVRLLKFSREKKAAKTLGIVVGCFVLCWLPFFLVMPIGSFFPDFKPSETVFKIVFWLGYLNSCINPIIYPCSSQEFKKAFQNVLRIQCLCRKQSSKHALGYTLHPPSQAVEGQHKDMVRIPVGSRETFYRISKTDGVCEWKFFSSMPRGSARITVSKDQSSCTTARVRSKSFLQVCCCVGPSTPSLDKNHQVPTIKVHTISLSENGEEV
The assay is described as follows: RSAT assay, alpha 1A receptor. How it is done: as §1, §2

In a further assay the target is T4, Alpha 2A (Homo sapiens, UniProt P08913).
T4 construct: expressed in transfected cells; host or cells: NIH-3T3
T4 sequence (P08913 1-465): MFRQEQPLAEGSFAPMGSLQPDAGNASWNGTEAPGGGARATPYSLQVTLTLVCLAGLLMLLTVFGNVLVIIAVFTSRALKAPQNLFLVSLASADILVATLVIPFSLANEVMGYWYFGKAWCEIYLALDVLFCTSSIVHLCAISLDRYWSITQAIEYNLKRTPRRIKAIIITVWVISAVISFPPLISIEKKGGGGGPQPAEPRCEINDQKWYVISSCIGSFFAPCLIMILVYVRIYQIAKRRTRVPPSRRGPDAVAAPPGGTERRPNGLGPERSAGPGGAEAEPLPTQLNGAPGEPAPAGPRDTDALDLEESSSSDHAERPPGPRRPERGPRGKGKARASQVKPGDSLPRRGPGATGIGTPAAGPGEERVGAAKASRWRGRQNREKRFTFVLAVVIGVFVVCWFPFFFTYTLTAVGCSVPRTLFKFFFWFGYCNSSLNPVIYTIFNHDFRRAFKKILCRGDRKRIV
The assay is described as follows: RSAT assay, alpha 2A receptor. The note with it: ratio of maximal effect to that of standard agonist brimonidine. As for the experimental part: as §1, §2

Turning to `Cc1[nH]cnc1C(C)c1cccc2cccnc12` (stereo not drawn) [8-(1-(5-methyl-1H-imidazol-4-yl)ethyl)quinoline], the half-maximal effective concentration (EC50) – broadly, the concentration that produces a half-maximal response – on Alpha 2C was 3.11 µM. Moreover, the “Alpha 2C (IA) intrinsic activity” value on Alpha 2C (RSAT, ratio of maximal effect to that of standard agonist brimonidine) was 0.32. For the same molecule, on Alpha 2B, the EC50 came out at 0.03 µM and the “Alpha 2B (IA) intrinsic activity” value is 0.70.

As for `Cc1[nH]cnc1Cc1cccc2cccnc12` [8-((5-methyl-1H-imidazol-4-yl)methyl)quinoline], the concentration giving a half-maximal response (EC50) at Alpha 1A was 1.73 µM. Further, the “Alpha 1A (IA) intrinsic activity” value at Alpha 1A (RSAT, ratio of maximal effect of drug to maximal effect of standard full agonist) stood at 0.75. On Alpha 2B, a half-maximal response (EC50) required 0.117 µM and the “Alpha 2B (IA) intrinsic activity” value was determined as 0.70.

As to `Cc1[nH]cnc1Cc1ccc2cccnc2c1C` [8-methyl-7-((5-methyl-1H-imidazol-4-yl)methyl)quinoline], the “Alpha 2A (IA) intrinsic activity” value on Alpha 2A was 0.43.
